Measurements taken from US20250313569A1, “Pharmaceutical Compounds And Compositions As Modulators Of MAS-Related G-Protein Receptor X2” (Enanta Pharmaceuticals, Inc., priority 2024, published 2025).
pEC50: −log10 of the molar value.

The molecules below were run against T1, MRGPRX2 LAD2 (Homo sapiens, UniProt Q96LB1) (assay: LAD2 β-hexosaminidase release assay (degranulation), Cortistatin-14 at EC75). Settings: LAD2 cells; 1 hour compound incubation, Cortistatin-14 at EC75 for 30 minutes; percent degranulation (β-hexosaminidase).
T1 construct: host or cells: LAD2 human mast cells
T1 sequence (Q96LB1 1-330): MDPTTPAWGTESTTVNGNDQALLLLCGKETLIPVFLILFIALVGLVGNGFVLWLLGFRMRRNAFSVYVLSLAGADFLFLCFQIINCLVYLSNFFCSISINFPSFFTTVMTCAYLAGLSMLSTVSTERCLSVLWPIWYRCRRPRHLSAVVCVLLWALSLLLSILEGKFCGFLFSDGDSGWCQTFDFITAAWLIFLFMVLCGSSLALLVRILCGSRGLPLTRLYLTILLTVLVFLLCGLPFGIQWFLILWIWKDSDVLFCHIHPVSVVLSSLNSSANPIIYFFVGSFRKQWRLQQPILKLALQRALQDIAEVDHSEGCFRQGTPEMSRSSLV
Format: cell-based
Protocol: LAD2 cells obtained from the NIH were cultured in StemPro34 (Gibco) serum-free media supplemented with GlutaMax, penicillin and streptomycin, and 100 ng/mL SCF (Invitrogen). Cells were maintained in a 37° C., 5% CO2 humidified incubator at a concentration of 2-5E5 cells/mL, with hemidepletion once a week.
One day prior to the assay, cells were starved of SCF at a concentration of 2.3E5 cells/mL. On the day of the assay cells were washed twice in Tyrode's Buffer containing 0.04% BSA (assay buffer) and plated in a 96 well-v-bottom assay plate at 20,000 cells per well in 80 μL of assay buffer. Compounds were solubilized at 10 mM DMSO and added as a 10-fold overconcentrated 8-point curve in assay buffer in a volume of 10 μL using the JANUS liquid handler. Assay plates were incubated for 1 hour at 37° C. Cortistatin-14 was diluted in assay buffer to […] its predetermined EC75 and added to the assay plates in a volume of 10 μL. Assay plates were incubated at 37° C. for 30 minutes. After incubation, cells were pelleted and 50 μL of supernatant from each well was transferred to a 96 well flat bottom plate containing 100 μL of substrate solution (3.5 mg/mL p-Nitrophenyl-N-acetyl-β-D-glucosaminide (Sigma Aldrich) in 40 mM Citrate Buffer (Thermo Fisher)). The remaining cell pellets were lysed with 150 μL of 0.1% Triton-X-100 and mixed thoroughly. 50 μL of lysate was transferred to a 96-well flat bottom plate containing 100 μL of substrate solution. Plates with supernatants and lysates were incubated at 37° C. for 90 minutes prior to addition of 50 μL of 400 mM Glycine buffer (pH 10.7). The plates were read on a Perkin Elmer Envision plate reader at an Abs of 405 nanometers. Percent degranulation was calculated and Xlfit was used to calculate an EC50 value for each compound using a 4-parameter logistic curve fitting model. EC50 ranges are reported as follows: A<100 nM; B 0.1-1 μM; C>1 μM.
`CC(=O)N1C[C@@H](NC(=O)c2cn(CC(F)(F)F)nc2C2CCC2)C[C@@H](Nc2cc(C(F)(F)F)nc3ccc(Cl)cc23)C1` [Example 100] gave a pEC50 greater than 7.00.
Work on `CS(=O)(=O)Nc1cccc(C(=O)N[C@H]2C[C@@H](Nc3cc(C(F)(F)F)nc4ccc(Cl)cc34)CN(C(=O)C(F)F)C2)c1` [Example 72] yielded a pEC50 greater than 7.00.
Work on `CC(=O)N1C[C@@H](NC(=O)c2cn(CC(F)(F)F)nc2C2CC2)C[C@@H](Nc2c(F)c(C(F)(F)F)nc3cc(F)c(Cl)cc23)C1` [Example 130] yielded a pEC50 greater than 7.00.
`CC(C)(O)Cn1cc(C(=O)N[C@H]2C[C@@H](Nc3cc(C(F)(F)F)nc4ccc(Cl)cc34)CN(C(=O)C(F)F)C2)c(Cl)n1` [Example 118] showed a pEC50 greater than 7.00.
With `O=C(N[C@H]1C[C@@H](Nc2cc(C(F)(F)F)nc3ccc(Cl)cc23)CN(C(=O)C(F)F)C1)c1cn(CC(F)(F)F)nc1C1CC1` [Example 90] the pEC50 was greater than 7.00.
For `O=C(N[C@H]1C[C@@H](Nc2cc(C(F)(F)F)nc3ccc(Cl)cc23)CN(C(=O)C(F)F)C1)c1cn(CC2(O)CCC2)nc1Cl` [Example 119], the pEC50 was greater than 7.00.
Work on `CC(=O)N1C[C@@H](NC(=O)c2cn(C3CCS(=O)(=O)CC3)nc2C(F)(F)F)C[C@@H](Nc2cc(C(F)(F)F)nc3ccc(Cl)cc23)C1` [Example 106] yielded a pEC50 greater than 7.00.
Work on `CC(=O)N1C[C@@H](NC(=O)c2cn(CC(C)(C)O)nc2C(F)(F)F)C[C@@H](Nc2cc(C(F)(F)F)nc3ccc(Cl)cc23)C1` [Example 95] yielded a pEC50 greater than 7.00.
Work on `O=C(N[C@H]1C[C@@H](Nc2cc(C(F)(F)F)nc3ccc(Cl)cc23)CN(C2COC2)C1)c1cn(CC(F)(F)F)nc1C1CC1` [Example 91] yielded a pEC50 of 6.00 to 7.00.
With `CC(=O)N1C[C@@H](NC(=O)c2cn(CC(F)(F)F)cc2C(F)(F)F)C[C@@H](Nc2cc(C(F)(F)F)nc3ccc(Cl)cc23)C1` [Example 113] the pEC50 was greater than 7.00.
`COCc1nn(CC(F)(F)F)cc1C(=O)N[C@H]1C[C@@H](Nc2cc(C(F)(F)F)nc3ccc(Cl)cc23)CN(C(C)=O)C1` [Example 102] was tested, and the pEC50 was greater than 7.00.
`CC(=O)N1C[C@@H](NC(=O)c2cn(CC(F)(F)F)nc2C2CC2)C[C@@H](Nc2c(C)c(C(F)(F)F)nc3ccc(Cl)cc23)C1` [Example 135] gave a pEC50 greater than 7.00.

These molecules were tested against T2, human MRGPRX2 (Homo sapiens, UniProt Q96LB1) (assay: MRGPRX2 IP-1 Gq HTRF assay in HEK293 cells stably expressing human MRGPRX2, Cortistatin-14 at EC75). Settings: 2 hours at 37° C., cellular IP-1.
T2 construct: expressed in transfected cells; host or cells: HEK293
T2 sequence (Q96LB1 1-330): T1 sequence (Q96LB1 1-330)
Format: cell-based
Protocol: HEK293 cells stably expressing human MRGPRX2 were grown in Dulbecco's Modified Eagle Medium (DMEM) supplemented with 10% fetal bovine serum (FBS), 1% Glutamax, and 1 μg/mL of puromycin. Cells were maintained in a 37° C., 5% CO2 humidified incubator.
Cells were plated in a 384-well assay plate at a density of 20,000 cells per well overnight. Compounds were solubilized at 10 mM in DMSO and added as a 10-point curve using an ECHO acoustic liquid handler. On the day of the assay, Cortistatin-14 was diluted in assay buffer (provided by IP-One-Gq-HTRF kit purchased from Cisbio, 62IPAPEJ) and added to the assay plate at a final concentration corresponding to the predetermined EC75. Plates were incubated at 37° C. for 2 hours prior to addition of HTRF detection reagents per the manufacturer's instructions. The plates were read on a Perkin Elmer Envision plate reader. The HTRF ratio and cellular IP-1 levels were calculated. XLfit was used to calculate an EC50 value for each compound using a 4-parameter logistic curve fitting model. EC50 ranges are reported as follows: A<100 nM; B 0.1-1 μM; C>1 μM.
Work on `CS(=O)(=O)Nc1cccc(C(=O)N[C@H]2C[C@@H](Nc3cc(C(F)(F)F)nc4ccc(Cl)cc34)CN(CC(F)F)C2)c1` [Example 73] yielded a pEC50 greater than 7.00.
For `CCn1cc2cc(C(=O)N[C@H]3C[C@@H](Nc4cc(C(F)(F)F)nc5ccc(Cl)cc45)CN(C(C)=O)C3)ccc2n1` [Example 57], the pEC50 was greater than 7.00.
For `CCn1cc(C(=O)N[C@H]2C[C@@H](Nc3cc(C(F)(F)F)nc4ccc(Cl)cc34)CN(C(C)=O)C2)cn1` [Example 31], the pEC50 was greater than 7.00.
`CC(=O)N1C[C@@H](NC(=O)c2cnn(-c3ccc(F)cc3)c2)C[C@@H](Nc2cc(C(F)(F)F)nc3ccc(Cl)cc23)C1` [Example 70] gave a pEC50 of 6.00 to 7.00.
`CC(=O)N1C[C@@H](NC(=O)c2cnn(C3CCNCC3)c2C)C[C@@H](Nc2cc(C(F)(F)F)nc3ccc(Cl)cc23)C1` [Example 34] gave a pEC50 of less than 6.00.
`CN1C[C@@H](NC(=O)c2cccc(NS(C)(=O)=O)c2)C[C@@H](Nc2cc(C(F)(F)F)nc3ccccc23)C1` [Example 51] gave a pEC50 of less than 6.00.
`CC(=O)N1C[C@@H](NC(=O)c2cnn(C(F)F)c2)C[C@@H](Nc2cc(C(F)(F)F)nc3ccc(Cl)cc23)C1` [Example 40] showed a pEC50 greater than 7.00.
`CNCC(=O)N1C[C@@H](NC(=O)c2cccc(NS(C)(=O)=O)c2)C[C@@H](Nc2cc(C(F)(F)F)nc3ccc(Cl)cc23)C1` [Example 12] was tested, and the pEC50 was 6.00 to 7.00.
`CC(=O)N1C[C@@H](Nc2nnc(-c3ccc(F)cc3)o2)C[C@@H](Nc2cc(C(F)(F)F)nc3ccc(Cl)cc23)C1` [Example 71] was tested, and the pEC50 was less than 6.00.
Molecule `CC(=O)N1C[C@@H](NC(=O)c2cc(F)cc(F)c2)C[C@@H](Nc2cc(C(F)(F)F)nc3ccc(Cl)cc23)C1` [Example 37] has a pEC50 of 6.00 to 7.00.
`CC(=O)N1C[C@@H](NC(=O)c2ccc(C(F)(F)F)nc2)C[C@@H](Nc2cc(C(F)(F)F)nc3ccc(Cl)cc23)C1` [Example 63] showed a pEC50 of 6.00 to 7.00.
`CC(=O)N1C[C@@H](NC(=O)c2cnn(-c3ccccc3)c2)C[C@@H](Nc2cc(C(F)(F)F)nc3ccc(Cl)cc23)C1` [Example 69] gave a pEC50 of 6.00 to 7.00.
`CC(=O)N1C[C@@H](NC(=O)c2cccc(NS(C)(=O)=O)c2)C[C@@H](Nc2ccc(C#N)c(C(F)(F)F)c2)C1` [Example 46] was tested, and the pEC50 was less than 6.00.
`CN1C[C@@H](NC(=O)c2cccc(NS(C)(=O)=O)c2)C[C@@H](N(C)c2cc(C(F)(F)F)nc3ccccc23)C1` [Example 52] was tested, and the pEC50 was less than 6.00.
For `CC(=O)N1C[C@@H](NC(=O)c2ccc(C)nc2)C[C@@H](Nc2cc(C(F)(F)F)nc3ccc(Cl)cc23)C1` [Example 62], the pEC50 was 6.00 to 7.00.
In the case of `CC(=O)N1C[C@@H](NC(=O)c2cnn(CC(C)(C)O)c2)C[C@@H](Nc2cc(C(F)(F)F)nc3ccc(Cl)cc23)C1` [Example 64], the pEC50 was greater than 7.00.
`CC(=O)N1C[C@@H](NC(=O)c2ccccc2F)C[C@@H](Nc2cc(C(F)(F)F)nc3ccc(Cl)cc23)C1` [Example 35] showed a pEC50 of 6.00 to 7.00.
`O=C(N[C@H]1C[C@@H](Nc2cc(C(F)(F)F)nc3ccc(Cl)cc23)CS(=O)(=O)C1)c1ccc(F)cc1` [Example 140] was tested, and the pEC50 was less than 6.00.
Molecule `CC(=O)N1C[C@@H](NC(=O)c2cccc(S(C)(=O)=O)c2)C[C@@H](Nc2cc(C(F)(F)F)nc3ccc(Cl)cc23)C1` [Example 28] has a pEC50 greater than 7.00.
`CC(=O)N1C[C@@H](NC(=O)c2cnn(C3CCCCC3)c2)C[C@@H](Nc2cc(C(F)(F)F)nc3ccc(Cl)cc23)C1` [Example 68] was tested, and the pEC50 was greater than 7.00.
For `COc1cc(C(=O)N[C@H]2C[C@@H](Nc3cc(C(F)(F)F)nc4ccc(Cl)cc34)CN(C(C)=O)C2)ccc1OC1CC1` [Example 60], the pEC50 was 6.00 to 7.00.
Work on `CC(=O)N1C[C@H](Nc2cc(C(F)(F)F)nc3ccc(Cl)cc23)C[C@H](n2cc(-c3cccc(NS(C)(=O)=O)c3)nn2)C1` [Example 55] yielded a pEC50 of 6.00 to 7.00.
Work on `COc1cc(C(=O)N[C@H]2C[C@@H](Nc3cc(C(F)(F)F)nc4ccc(Cl)cc34)CN(C(C)=O)C2)cc2cn(C(F)F)nc12` [Example 56] yielded a pEC50 greater than 7.00.
Molecule `CC(=O)N1CC(Nc2cc(C(F)(F)F)nc3ccccc23)C[C@H](NC(=O)c2cccc(NS(C)(=O)=O)c2)C1` (some centres unmarked) [Example 22] has a pEC50 of 6.00 to 7.00.
Molecule `CC(=O)N1C[C@@H](NC(=O)c2cnn(CC3CC3)c2)C[C@@H](Nc2cc(C(F)(F)F)nc3ccc(Cl)cc23)C1` [Example 61] has a pEC50 greater than 7.00.
With `CC(=O)N1C[C@@H](NC(=O)c2cnn(C)c2C)C[C@@H](Nc2cc(C(F)(F)F)nc3ccc(Cl)cc23)C1` [Example 39] the pEC50 was 6.00 to 7.00.
`CS(=O)(=O)Nc1cccc(C(=O)N[C@@H]2CNC[C@H](Nc3cc(C(F)(F)F)nc4ccc(Cl)cc34)C2)c1` [Example 7] was tested, and the pEC50 was less than 6.00.
`CC(=O)N1C[C@@H](NC(=O)c2cn(CC(F)(F)F)nn2)C[C@@H](Nc2cc(C(F)(F)F)nc3ccc(Cl)cc23)C1` [Example 33] gave a pEC50 of 6.00 to 7.00.
`CC(=O)N1CC(Nc2cc(C(F)(F)F)nc3ccc(F)cc23)C[C@H](NC(=O)c2cccc(NS(C)(=O)=O)c2)C1` (some centres unmarked) [Example 21] showed a pEC50 greater than 7.00.
Molecule `CS(=O)(=O)Nc1cccc(C(=O)N[C@H]2CC(Nc3cc(C(F)(F)F)nc4ccc(Cl)cc34)CN(C(=O)C3CC3)C2)c1` (some centres unmarked) [Example 16] has a pEC50 of 6.00 to 7.00.
Molecule `CN(C)CC(=O)N1C[C@@H](NC(=O)c2cccc(NS(C)(=O)=O)c2)C[C@@H](Nc2cc(C(F)(F)F)nc3ccc(Cl)cc23)C1` [Example 13] has a pEC50 of 6.00 to 7.00.
`CC(=O)N1C[C@@H](NC(=O)c2cnn(C(C)C)c2)C[C@@H](Nc2cc(C(F)(F)F)nc3ccc(Cl)cc23)C1` [Example 38] showed a pEC50 of 6.00 to 7.00.
